# Literature values in patent publication US12096767B2, “Residual disinfectant composition” (Kimberly-Clark Worldwide, Inc., priority 2015, dated 2024).
# Conditions: determined at a temperature of 25° C.
smiles,measurement,value
O=CC(=O)O [glyoxylic acid],pka1,3.18
